pEC50: −log10 of the molar value. Where two headings read alike, the source gives them in different places.
Columns and labels:
human CB2 receptors = human CB2 receptors (Homo sapiens (Human), UniProt P34972); assay: cAMP assay, CHO cells expressing human CB2 receptors; format: cell-based
Method in brief: (§1)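 Agonist EC50 values come from cAMP levels measured in intact CHO cells. Compounds act for 30 min at 30 °C in the presence of 1 mM IBMX, and cAMP is then detected by time-resolved energy transfer after lysis.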

human CB1 receptors = human CB1 receptors (Homo sapiens (Human), UniProt P21554); assay: cAMP assay, CHO cells expressing human CB1 receptors; format: cell-based
Method in brief: as §1

[1] = CHO cells expressing human CB2, cAMP, read-out: human CB2 EC50
[2] = CHO cells expressing human CB1, cAMP, read-out: human CB1 EC50

human CB1 receptors, sequence (P21554 whole entry): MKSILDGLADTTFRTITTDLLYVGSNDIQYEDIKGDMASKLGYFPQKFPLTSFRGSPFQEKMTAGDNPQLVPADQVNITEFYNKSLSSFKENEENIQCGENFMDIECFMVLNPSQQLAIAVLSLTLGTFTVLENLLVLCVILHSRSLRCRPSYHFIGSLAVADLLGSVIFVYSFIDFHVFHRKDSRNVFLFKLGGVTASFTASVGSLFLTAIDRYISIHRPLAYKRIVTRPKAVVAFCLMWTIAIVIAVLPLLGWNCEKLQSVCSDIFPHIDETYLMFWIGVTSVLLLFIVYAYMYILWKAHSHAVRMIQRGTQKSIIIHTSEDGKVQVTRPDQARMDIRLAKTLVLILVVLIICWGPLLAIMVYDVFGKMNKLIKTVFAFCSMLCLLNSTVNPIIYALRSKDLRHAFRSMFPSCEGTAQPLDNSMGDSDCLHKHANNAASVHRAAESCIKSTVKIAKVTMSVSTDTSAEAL
human CB2 receptors, sequence (P34972 whole entry): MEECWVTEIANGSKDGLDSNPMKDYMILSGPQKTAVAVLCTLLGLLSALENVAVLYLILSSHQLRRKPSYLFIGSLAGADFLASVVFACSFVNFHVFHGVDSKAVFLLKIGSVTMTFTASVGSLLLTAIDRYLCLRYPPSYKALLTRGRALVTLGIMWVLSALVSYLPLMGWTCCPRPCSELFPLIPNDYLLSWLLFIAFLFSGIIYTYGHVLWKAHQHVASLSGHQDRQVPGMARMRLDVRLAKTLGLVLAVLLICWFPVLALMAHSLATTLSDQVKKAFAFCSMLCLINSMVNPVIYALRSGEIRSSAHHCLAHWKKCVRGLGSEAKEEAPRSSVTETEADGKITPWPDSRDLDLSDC

Row | SMILES | pEC50 (human CB2 receptors) | pEC50 (human CB1 receptors) | pEC50 (human CB2 receptors; [1]) | pEC50 (human CB1 receptors; [2])
1 | CNC(=O)[C@@H](NC(=O)c1ccc(C2CC2)c(S(=O)(=O)CC(C)C)n1)C(C)(C)C [Example 364, 5-Cyclopropyl-6-(2-methyl-propane-1-sulfonyl)-pyridine-2-carboxylic acid ((S)-2,2-dimethyl-1-methylcarbamoyl-propyl)-amide] | 7.89 | < 5.00 | – | –
2 | NC(=O)[C@H](CC1CC1)NC(=O)c1ccc(N2CCC(F)(F)C2)c(OCC2CC2)n1 [Example 112, 6-Cyclopropylmethoxy-5-(3,3-difluoro-pyrrolidin-1-yl)-pyridine-2-carboxylic acid ((S)-1-carbamoyl-2-cyclopropyl-ethyl)-amide] | – | – | 7.81 | < 5.00
3 | CN1CC(NC(=O)c2ccc(N3CC(F)(F)C3)c(OCC3CC3)n2)CC1=O (centres unmarked) [Example 290, 6-Cyclopropylmethoxy-5-(3,3-difluoro-azetidin-1-yl)-pyridine-2-carboxylic acid (1-methyl-5-oxo-pyrrolidin-3-yl)-amide] | – | – | 6.07 | < 5.00
4 | CCOC(=O)C(CC)(CC)NC(=O)c1ccc(C(F)(F)F)c(OCC2CCCO2)n1 (centres unmarked) [Example 254, 2-Ethyl-2-{[6-(tetrahydro-furan-2-ylmethoxy)-5-trifluoromethyl-pyridine-2-carbonyl]-amino}-butyric acid ethyl ester] | – | – | 8.64 | 6.29
5 | COC(=O)[C@H](CC1CC1)NC(=O)c1ccc(C2CC2)c(OCC2CC2)n1 [Example 258, (S)-3-Cyclopropyl-2-[(5-cyclopropyl-6-cyclopropylmethoxy-pyridine-2-carbonyl)-amino]-propionic acid methyl ester] | – | – | 8.15 | < 5.00
6 | CCC(CC)(NC(=O)c1ccc(C2CCCC2)c(OCC2CC2)n1)C(=O)NC [Example 111, 5-Cyclopentyl-6-cyclopropylmethoxy-pyridine-2-carboxylic acid (1-ethyl-1-methylcarbamoyl-propyl)-amide] | – | – | 8.16 | < 5.00
7 | COCCOc1nc(C(=O)NC(C)(C)c2noc(C)n2)ccc1C1CC1 [Example 153, 5-Cyclopropyl-6-(2-methoxy-ethoxy)-pyridine-2-carboxylic acid [1-methyl-1-(5-methyl-[1,2,4]oxadiazol-3-yl)-ethyl]-amide] | – | – | 6.53 | < 5.00
8 | Cc1cnc(C(C)(C)NC(=O)c2ccc(C3CC3)c(OCC3CC3)n2)s1 [Example 350, 5-Cyclopropyl-6-cyclopropylmethoxy-pyridine-2-carboxylic acid [1-methyl-1-(5-methyl-thiazol-2-yl)-ethyl]-amide] | – | – | 8.44 | < 5.00
9 | CC(C)(NC(=O)c1cccc(-c2cccc(Cl)c2)n1)c1ncon1 [Example 72, 6-(3-Chloro-phenyl)-pyridine-2-carboxylic acid (1-methyl-1-[1,2,4]oxadiazol-3-yl-ethyl)-amide] | – | – | 7.48 | < 5.00
10 | CC[C@@H](NC(=O)c1ccc(C2CC2)c(OCC2CC2)n1)c1noc(C)n1 [Example 245, 5-Cyclopropyl-6-cyclopropylmethoxy-pyridine-2-carboxylic acid [(−)-1-(5-methyl-[1,2,4]oxadiazol-3-yl)-propyl]-amide] | – | – | 7.69 | < 5.00
11 | NC(=O)[C@H](CC1CC1)NC(=O)c1ccc(C2CC2)c(OCC2CC2)n1 [Example 98, 5-Cyclopropyl-6-cyclopropylmethoxy-pyridine-2-carboxylic acid ((S)-1-carbamoyl-2-cyclopropyl-ethyl)-amide] | – | – | 7.56 | < 5.00
12 | Cc1nc(C(C)(C)NC(=O)c2ccc(C3CC3)c(OCc3ccccn3)n2)no1 [Example 199, 5-Cyclopropyl-N-(2-(5-methyl-1,2,4-oxadiazol-3-yl)propan-2-yl)-6-(pyridin-2-ylmethoxy)picolinamide] | – | – | 6.82 | < 5.00
13 | O=C(NC1(CO)CCCC1)c1ccc(C2CC2)c(OCC2CC2)n1 [Example 175, 5-Cyclopropyl-6-(cyclopropylmethoxy)-N-(1-(hydroxymethyl)cyclopentyl)picolinamide] | – | – | 7.32 | < 5.00

From patent publication US9290451B2 (Hoffmann-La Roche Inc., priority 2011, dated 2016)
